Experimental data as given in patent US10906915B2, “Substituted pyrazoloazepin-4-ones and their use as phosphodiesterase inhibitors” (LEO Pharma A/S, priority 2016, dated 2021).

The molecules below were run against human PDE4D catalytic domain (UniProt no. Q08499) (Homo sapiens (Human), UniProt Q08499) (assay: PDE4 assay (TR-FRET, FAM-cAMP cleavage)). Settings: human PDE4D catalytic domain; molar concentration giving 50% inhibition of substrate cleavage; read-out: PDE4 IC50 range.
Assay type: biochemical
Method in brief: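 PDE4D catalytic domain ([…]) was incubated with unlabelled cAMP plus FAM-cAMP and titrated compound, stopped with binding buffer of metal-ion nanoparticles and Tb donor. AMP generation read by TR-FRET; IC50 as 50% inhibition of cleavage versus controls, reported as nM ranges.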

Chain of human PDE4D catalytic domain (Q08499 380-740 limits assumed): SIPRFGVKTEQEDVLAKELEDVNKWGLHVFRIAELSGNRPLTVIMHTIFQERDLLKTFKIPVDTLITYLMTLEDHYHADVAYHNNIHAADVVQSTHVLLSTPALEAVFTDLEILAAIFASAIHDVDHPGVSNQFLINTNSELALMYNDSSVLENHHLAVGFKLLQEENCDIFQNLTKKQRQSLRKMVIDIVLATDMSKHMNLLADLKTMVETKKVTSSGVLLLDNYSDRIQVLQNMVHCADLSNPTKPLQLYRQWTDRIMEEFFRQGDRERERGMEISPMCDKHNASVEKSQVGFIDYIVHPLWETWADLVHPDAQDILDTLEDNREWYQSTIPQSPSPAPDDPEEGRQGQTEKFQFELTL

SMILES	IC50 [µM]
CCc1nn(C[C@@H](C)COC(=O)c2ccc(S(N)(=O)=O)cc2)c2c1C(=O)NCC1(CCOCC1)C2 [Example 215, [(2R)-3-(3-ethyl-4-oxo-spiro[6,8-dihydro-5H-pyrazolo[4,3-c]azepine-7,4′-tetrahydropyran]-1-yl)-2-methyl-propyl] 4-sulfamoylbenzoate]	< 0.1
CCc1nn(C[C@@H](C)COC(=O)c2cccc(C(F)(F)F)c2C)c2c1C(=O)NCC1(CCOCC1)C2 [Example 217, [(2R)-3-(3-ethyl-4-oxo-spiro[6,8-dihydro-5H-pyrazolo[4,3-c]azepine-7,4′-tetrahydropyran]-1-yl)-2-methyl-propyl] 2-methyl-3-(trifluoromethyl)benzoate]	< 0.1
CCc1nn(C[C@@H](C)COC(=O)c2cc(C(F)(F)F)ccc2C)c2c1C(=O)NCC1(CCOCC1)C2 [Example 218, [(2R)-3-(3-ethyl-4-oxo-spiro[6,8-dihydro-5H-pyrazolo[4,3-c]azepine-7,4′-tetrahydropyran]-1-yl)-2-methyl-propyl] 2-methyl-5-(trifluoromethyl)benzoate]	< 0.1
CCc1nn(C[C@@H](C)COC(=O)c2ccc(C(F)(F)F)c(F)c2)c2c1C(=O)NCC1(CCOCC1)C2 [Example 219, [(2R)-3-(3-ethyl-4-oxo-spiro[6,8-dihydro-5H-pyrazolo[4,3-c]azepine-7,4′-tetrahydropyran]-1-yl)-2-methyl-propyl] 3-fluoro-4-(trifluoromethyl)benzoate]	< 0.1
CCc1nn(C[C@@H](C)COC(=O)c2cc(C(F)(F)F)ccc2F)c2c1C(=O)NCC1(CCOCC1)C2 [Example 220, [(2R)-3-(3-ethyl-4-oxo-spiro[6,8-dihydro-5H-pyrazolo[4,3-c]azepine-7,4′-tetrahydropyran]-1-yl)-2-methyl-propyl] 2-fluoro-5-(trifluoromethyl)benzoate]	< 0.1
CCc1nn(C[C@@H](C)COC(=O)c2ccc(C(F)(F)F)cc2F)c2c1C(=O)NCC1(CCOCC1)C2 [Example 221, [(2R)-3-(3-ethyl-4-oxo-spiro[6,8-dihydro-5H-pyrazolo[4,3-c]azepine-7,4′-tetrahydropyran]-1-yl)-2-methyl-propyl] 2-fluoro-4-(trifluoromethyl)benzoate]	< 0.1
CCc1nn(C[C@@H](C)COC(=O)c2ccc(F)cc2C(F)(F)F)c2c1C(=O)NCC1(CCOCC1)C2 [Example 222, [(2R)-3-(3-ethyl-4-oxo-spiro[6,8-dihydro-5H-pyrazolo[4,3-c]azepine-7,4′-tetrahydropyran]-1-yl)-2-methyl-propyl] 4-fluoro-2-(trifluoromethyl)benzoate]	< 0.1
CCc1nn(C[C@@H](C)COC(=O)c2cc(F)ccc2C(F)(F)F)c2c1C(=O)NCC1(CCOCC1)C2 [Example 223, [(2R)-3-(3-ethyl-4-oxo-spiro[6,8-dihydro-5H-pyrazolo[4,3-c]azepine-7,4′-tetrahydropyran]-1-yl)-2-methyl-propyl] 5-fluoro-2-(trifluoromethyl)benzoate]	< 0.1
CCc1nn(C[C@@H](C)COC(=O)c2ccc(F)c(C(F)(F)F)c2)c2c1C(=O)NCC1(CCOCC1)C2 [Example 224, [(2R)-3-(3-ethyl-4-oxo-spiro[6,8-dihydro-5H-pyrazolo[4,3-c]azepine-7,4′-tetrahydropyran]-1-yl)-2-methyl-propyl] 4-fluoro-3-(trifluoromethyl)benzoate]	< 0.1
CCc1nn(C[C@@H](C)COC(=O)c2cc(F)cc(C(F)(F)F)c2)c2c1C(=O)NCC1(CCOCC1)C2 [Example 225, [(2R)-3-(3-ethyl-4-oxo-spiro[6,8-dihydro-5H-pyrazolo[4,3-c]azepine-7,4′-tetrahydropyran]-1-yl)-2-methyl-propyl] 3-fluoro-5-(trifluoromethyl)benzoate]	< 0.1
CCc1nn(C[C@@H](C)COC(=O)c2cccc(S(=O)(=O)CC)c2)c2c1C(=O)NCC1(CCOCC1)C2 [Example 226, [(2R)-3-(3-ethyl-4-oxo-spiro[6,8-dihydro-5H-pyrazolo[4,3-c]azepine-7,4′-tetrahydropyran]-1-yl)-2-methyl-propyl] 3-ethylsulfonylbenzoate]	< 0.1
CCc1nn(C[C@@H](C)COC(=O)c2ccc(S(=O)(=O)CC)cc2)c2c1C(=O)NCC1(CCOCC1)C2 [Example 227, [(2R)-3-(3-ethyl-4-oxo-spiro[6,8-dihydro-5H-pyrazolo[4,3-c]azepine-7,4′-tetrahydropyran]-1-yl)-2-methyl-propyl] 4-ethylsulfonylbenzoate]	< 0.1
CCc1nn(C[C@@H](C)COC(=O)c2cccc(S(=O)(=O)NC)c2)c2c1C(=O)NCC1(CCOCC1)C2 [Example 228, [(2R)-3-(3-ethyl-4-oxo-spiro[6,8-dihydro-5H-pyrazolo[4,3-c]azepine-7,4′-tetrahydropyran]-1-yl)-2-methyl-propyl] 3-(methylsulfamoyl)benzoate]	< 0.1
CCc1nn(C[C@@H](C)COC(=O)c2ccc(OC)cc2C(F)(F)F)c2c1C(=O)NCC1(CCOCC1)C2 [Example 229, [(2R)-3-(3-ethyl-4-oxo-spiro[6,8-dihydro-5H-pyrazolo[4,3-c]azepine-7,4′-tetrahydropyran]-1-yl)-2-methyl-propyl] 4-methoxy-2-(trifluoromethyl)benzoate]	< 0.1
CCc1nn(C[C@@H](C)COC(=O)c2ccc(OC)c(C(F)(F)F)c2)c2c1C(=O)NCC1(CCOCC1)C2 [Example 230, [(2R)-3-(3-ethyl-4-oxo-spiro[6,8-dihydro-5H-pyrazolo[4,3-c]azepine-7,4′-tetrahydropyran]-1-yl)-2-methyl-propyl] 4-methoxy-3-(trifluoromethyl)benzoate]	< 0.1
CCc1nn(C[C@@H](C)COC(=O)c2cc(OC)ccc2C(F)(F)F)c2c1C(=O)NCC1(CCOCC1)C2 [Example 231, [(2R)-3-(3-ethyl-4-oxo-spiro[6,8-dihydro-5H-pyrazolo[4,3-c]azepine-7,4′-tetrahydropyran]-1-yl)-2-methyl-propyl] 5-methoxy-2-(trifluoromethyl)benzoate]	< 0.1
CCc1nn(C[C@@H](C)COC(=O)c2cc(OC)cc(C(F)(F)F)c2)c2c1C(=O)NCC1(CCOCC1)C2 [Example 232, [(2R)-3-(3-ethyl-4-oxo-spiro[6,8-dihydro-5H-pyrazolo[4,3-c]azepine-7,4′-tetrahydropyran]-1-yl)-2-methyl-propyl] 3-methoxy-5-(trifluoromethyl)benzoate]	< 0.1
CCc1nn(C[C@@H](C)COC(=O)c2ccc(C(F)(F)F)c(OC)c2)c2c1C(=O)NCC1(CCOCC1)C2 [Example 233, [(2R)-3-(3-ethyl-4-oxo-spiro[6,8-dihydro-5H-pyrazolo[4,3-c]azepine-7,4′-tetrahydropyran]-1-yl)-2-methyl-propyl] 3-methoxy-4-(trifluoromethyl)benzoate]	< 0.1
CCc1nn(C[C@@H](C)COC(=O)c2ccc(C(F)(F)F)c(Cl)c2)c2c1C(=O)NCC1(CCOCC1)C2 [Example 234, [(2R)-3-(3-ethyl-4-oxo-spiro[6,8-dihydro-5H-pyrazolo[4,3-c]azepine-7,4′-tetrahydropyran]-1-yl)-2-methyl-propyl] 3-chloro-4-(trifluoromethyl)benzoate]	< 0.1
CCc1nn(C[C@@H](C)COC(=O)c2cccc(C(F)(F)F)c2Cl)c2c1C(=O)NCC1(CCOCC1)C2 [Example 235, [(2R)-3-(3-ethyl-4-oxo-spiro [6,8-dihydro-5H-pyrazolo[4,3-c]azepine-7,4′-tetrahydropyran]-1-yl)-2-methyl-propyl] 2-chloro-3-(trifluoromethyl)benzoate]	< 0.1
CCc1nn(C[C@@H](C)COC(=O)c2ccc(Cl)cc2C(F)(F)F)c2c1C(=O)NCC1(CCOCC1)C2 [Example 236, [(2R)-3-(3-ethyl-4-oxo-spiro[6,8-dihydro-5H-pyrazolo[4,3-c]azepine-7,4′-tetrahydropyran]-1-yl)-2-methyl-propyl] 4-chloro-2-(trifluoromethyl)benzoate]	< 0.1
CCc1nn(C[C@@H](C)COC(=O)c2ccc(C(F)(F)F)cc2Cl)c2c1C(=O)NCC1(CCOCC1)C2 [Example 237, [(2R)-3-(3-ethyl-4-oxo-spiro[6,8-dihydro-5H-pyrazolo[4,3-c]azepine-7,4′-tetrahydropyran]-1-yl)-2-methyl-propyl] 2-chloro-4-(trifluoromethyl)benzoate]	< 0.1
CCc1nn(C[C@@H](C)COC(=O)c2ccc(Cl)c(C(F)(F)F)c2)c2c1C(=O)NCC1(CCOCC1)C2 [Example 238, [(2R)-3-(3-ethyl-4-oxo-spiro[6,8-dihydro-5H-pyrazolo[4,3-c]azepine-7,4′-tetrahydropyran]-1-yl)-2-methyl-propyl] 4-chloro-3-(trifluoromethyl)benzoate]	< 0.1
CCc1nn(C[C@@H](C)COC(=O)c2cc(Cl)ccc2C(F)(F)F)c2c1C(=O)NCC1(CCOCC1)C2 [Example 239, [(2R)-3-(3-ethyl-4-oxo-spiro[6,8-dihydro-5H-pyrazolo[4,3-c]azepine-7,4′-tetrahydropyran]-1-yl)-2-methyl-propyl] 5-chloro-2-(trifluoromethyl)benzoate]	< 0.1
CCc1nn(C[C@@H](C)COC(=O)c2cc(Cl)cc(C(F)(F)F)c2)c2c1C(=O)NCC1(CCOCC1)C2 [Example 240, [(2R)-3-(3-ethyl-4-oxo-spiro[6,8-dihydro-5H-pyrazolo[4,3-c]azepine-7,4′-tetrahydropyran]-1-yl)-2-methyl-propyl] 3-chloro-5-(trifluoromethyl)benzoate]	< 0.1
CCc1nn(C[C@@H](C)COC(=O)c2cc(C(F)(F)F)ccc2Cl)c2c1C(=O)NCC1(CCOCC1)C2 [Example 241, [(2R)-3-(3-ethyl-4-oxo-spiro[6,8-dihydro-5H-pyrazolo[4,3-c]azepine-7,4′-tetrahydropyran]-1-yl)-2-methyl-propyl] 2-chloro-5-(trifluoromethyl)benzoate]	< 0.1
